Test results: patent publication US10385395B2, “Diagnostic tools for response to 6-thiopurine therapy” (THE REGENTS OF THE UNIVERSITY OF CALIFORNIA, priority 2012, dated 2019)

B1: IFN-y: recombinant cytokine (R&D Systems) added to a final concentration of 20 ng ml-1 (protein, UniProt P01579 24-161, looked up)
Interferon gamma: QDPYVKEAENLKKYFNAGHSDVADNGTLFLGILKNWKEESDRKIMQSQIVSFYFKLFKNFKDDQSIQKSVETIKEDMNVKFFNSNKKKRDDFEKLTNYSVTDLNVQRKAIHELIQVMAELSPAAKTGKRKRSQMLFRG

How the values were obtained:
[1] = tested on: CD4+ T cell proliferation; assay: T cell proliferation in the absence of NK cells with exogenous cytokines added; format: cell-based, human; settings: cytokine added at 20 ng mL-1, three-day culture (FIG. 9)
Protocol: Before co-culture, round bottom 96-well plates were coated with anti-CD3/CD28 antibody (R&D Systems, Minneapolis, Minn.) in PBS at 1.5 ug ml^−1 at room temperature for 2 hours, or at 0.5 ug ml^−1 at 4° C. overnight. […] For transwell assay, 24-well plates were used; NT (cells were placed on the filter side of a 1.0 um pore-sized transwell (BD Falcon, San Jose, Calif.), and CFSE-stained T cells were placed on the plate side of the transwell.

NK cells = settings: Crohn's disease patients; Brogan et al. 1985; cited from earlier work

Molecule | CD4+ cell proliferation with exogenous cytokine [1] | depletion of NK cells by therapy compared to other lymphoid cell types (NK cells)
IL-6: recombinant cytokine (R&D Systems) added to a final concentration of 20 ng ml-1 | greatly facilitated | 
Nc1nc2nc[nH]c2c(=S)[nH]1 [6-thioguanine] |  | quickly and profoundly depleted
B1 | marginal effects | 
